Laboratory results: patent US10287301B2 (Achillion Pharmaceuticals, Inc., priority 2015, dated 2019)

Target: Human Factor D (Homo sapiens (Human), UniProt P00746)
Test: Human Factor D Assay
Assay type: biochemical
Conditions: Human Factor D, Table 3; read-out: IC50
In short: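 First, compound at various concentrations is mixed with 80 nM (final) human serum Factor D in 50 mM Tris, 1M NaCl, pH 7.5 for 5 min at room temperature.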

Human Factor D, sequence (P00746 26-253): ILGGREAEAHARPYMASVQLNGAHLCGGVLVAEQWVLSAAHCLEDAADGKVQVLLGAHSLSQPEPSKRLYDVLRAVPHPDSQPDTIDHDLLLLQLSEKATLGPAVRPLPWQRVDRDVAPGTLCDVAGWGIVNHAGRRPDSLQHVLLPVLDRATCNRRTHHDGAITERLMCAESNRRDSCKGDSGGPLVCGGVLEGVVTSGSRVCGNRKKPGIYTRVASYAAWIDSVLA

Row | SMILES | IC50 [nM]
1 | CC(=O)c1nn(CC(=O)N2[C@@H]3C[C@@H]3C[C@H]2C(=O)NC/C(F)=C\c2ccccc2)c2ccc(-c3cnc(C)nc3)cc12 [Compound 575, (1R,3S,5R)-2-(2-(3-Acetyl-5-(2-methylpyrimidin-5-yl)-1H-indazol-1-yl)acetyl)-N-((E)-2-fluoro-3-phenylallyl)-2-azabicyclo[3.1.0]hexane-3-carboxamide] | < 1000
2 | CC(=O)c1nn(CC(=O)N2C[C@H](F)C[C@H]2C(=O)Nc2cccc(C3CC3)n2)c2ccc(-c3cnc(C)nc3)cc12 [Compound 576, (2S,4R)-1-(2-(3-Acetyl-5-(2-methylpyrimidin-5-yl)-1H-indazol-1-yl)acetyl)-N-(6-cyclopropylpyridin-2-yl)-4-fluoropyrrolidine-2-carboxamide] | < 1000
3 | COc1cccc(NC(=O)[C@@H]2C[C@@H](F)CN2C(=O)Cn2nc(C(C)=O)c3cc(-c4cnc(C)nc4)ccc32)n1 [Compound 580, (2S,4R)-1-(2-(3-Acetyl-5-(2-methylpyrimidin-5-yl)-1H-indazol-1-yl)acetyl)-4-fluoro-N-(6-methoxypyridin-2-yl)pyrrolidine-2-carboxamide] | < 1000
4 | CC(=O)c1nn(CC(=O)N2C[C@H](F)C[C@H]2C(=O)Nc2cncc(C(F)(F)F)n2)c2ccc(-c3cnc(C)nc3)cc12 [Compound 581, (2S,4R)-1-(2-(3-Acetyl-5-(2-methylpyrimidin-5-yl)-1H-indazol-1-yl)acetyl)-4-fluoro-N-(6-(trifluoromethyl)pyrazin-2-yl)pyrrolidine-2-carboxamide] | < 1000
5 | CC(=O)c1nn(CC(=O)N2C[C@H](F)C[C@H]2C(=O)Nc2cccc(OC(F)F)n2)c2ccc(-c3cnc(C)nc3)cc12 [Compound 582, (2S,4R)-1-(2-(3-Acetyl-5-(2-methylpyrimidin-5-yl)-1H-indazol-1-yl)acetyl)-N-(6-(difluoromethoxy)pyridin-2-yl)-4-fluoropyrrolidine-2-carboxamide] | < 1000
6 | CC(=O)c1nn(CC(=O)N2C[C@H](F)C[C@H]2C(=O)Nc2cccc(Br)n2)c2ccc(-c3cnc(F)nc3)cc12 [Compound 583, (2S,4R)-1-(2-(3-Acetyl-5-(2-fluoropyrimidin-5-yl)-1H-indazol-1-yl)acetyl)-N-(6-bromopyridin-2-yl)-4-fluoropyrrolidine-2-carboxamide] | < 1000
7 | CC(=O)c1cccc(NC(=O)[C@@H]2C[C@@H](F)CN2C(=O)Cn2nc(C(C)=O)c3cc(-c4cnc(C)nc4)ccc32)n1 [Compound 584, (2S,4R)-1-(2-(3-Acetyl-5-(2-methylpyrimidin-5-yl)-1H-indazol-1-yl)acetyl)-N-(6-acetylpyridin-2-yl)-4-fluoropyrrolidine-2-carboxamide] | < 1000
8 | CC(=O)c1nn(CC(=O)N2CCC[C@H]2C(=O)Nc2cccc(C)n2)c2ccc(-c3ccc4ccccc4c3)cc12 [Compound 585, (S)-1-(2-(3-Acetyl-5-(naphthalen-2-yl)-1H-indazol-1-yl)acetyl)-N-(6-methylpyridin-2-yl)pyrrolidine-2-carboxamide] | > 10000
9 | CC(=O)c1nn(CC(=O)N2CC[C@H]2C(=O)Nc2cccc(C)n2)c2ccc(-c3ccc4ccccc4c3)cc12 [Compound 587, (S)-1-(2-(3-Acetyl-5-(naphthalen-2-yl)-1H-indazol-1-yl)acetyl)-N-(6-methylpyridin-2-yl)azetidine-2-carboxamide] | > 10000
10 | CC(=O)c1nn(CC(=O)N2CC[C@H]2C(=O)Nc2cccc(C)n2)c2ccc(-c3ccc(C)nc3)cc12 [Compound 588, (S)-1-(2-(3-Acetyl-5-(6-methylpyridin-3-yl)-1H-indazol-1-yl)acetyl)-N-(6-methylpyridin-2-yl)azetidine-2-carboxamide] | > 10000
11 | CC(=O)c1nn(CC(=O)N2CCC[C@H]2C(=O)Nc2cccc(C)n2)c2ccc(-c3ccc4cccnc4c3)cc12 [Compound 589, (S)-1-(2-(3-Acetyl-5-(quinolin-7-yl)-1H-indazol-1-yl)acetyl)-N-(6-methylpyridin-2-yl)pyrrolidine-2-carboxamide] | < 1000
12 | CC(=O)c1nn(CC(=O)N2C[C@H](F)C[C@H]2C(=O)Nc2cccc(Br)n2)c2ccc(-c3cnc(OC4CS(=O)(=O)C4)nc3)cc12 [Compound 591, (2S,4R)-1-(2-(3-Acetyl-5-(2-((1,1-dioxidothietan-3-yl)oxy)pyrimidin-5-yl)-1H-indazol-1-yl)acetyl)-N-(6-bromopyridin-2-yl)-4-fluoropyrrolidine-2-carboxamide] | < 1000
13 | CC(=O)c1nn(CC(=O)N2CCCC[C@@H]2C(=O)Nc2cccc(Br)n2)c2ccc(-c3cnc(C)nc3)cc12 [Compound 592, (R)-1-(2-(3-acetyl-5-(2-methylpyrimidin-5-yl)-1H-indazol-1-yl)acetyl)-N-(6-bromopyridin-2-yl)piperidine-2-carboxamide] | > 10000
14 | CC(=O)c1nn(CC(=O)N2CCCC[C@H]2C(=O)Nc2cccc(Br)n2)c2ccc(-c3cnc(C)nc3)cc12 [Compound 593, (S)-1-(2-(3-Acetyl-5-(2-methylpyrimidin-5-yl)-1H-indazol-1-yl)acetyl)-N-(6-bromopyridin-2-yl)piperidine-2-carboxamide] | < 1000
15 | CC(=O)c1cn(CCN2C[C@H](F)C[C@H]2C(=O)Nc2cccc(OC(F)(F)F)c2F)c2ccc(-c3cnc(C)nc3)cc12 [Compound 594, (2S,4R)-1-(2-(3-Acetyl-5-(2-methylpyrimidin-5-yl)-1H-indol-1-yl)ethyl)-4-fluoro-N-(2-fluoro-3-(trifluoromethoxy)phenyl)pyrrolidine-2-carboxamide] | > 10000
16 | COC(=O)c1ncc(-c2ccc3c(c2)c(C(C)=O)nn3CC(=O)N2C[C@H](F)C[C@H]2C(=O)Nc2cccc(Br)n2)cn1 [Compound 596, methyl 5-(3-Acetyl-1-(2-((2S,4R)-2-((6-bromopyridin-2-yl)carbamoyl)-4-fluoropyrrolidin-1-yl)-2-oxoethyl)-1H-indazol-5-yl)pyrimidine-2-carboxylate] | < 1000
17 | CC(=O)Nc1ncc(-c2ccc3c(c2)c(C(C)=O)nn3CC(=O)N2C[C@H](F)C[C@H]2C(=O)Nc2cccc(Br)n2)cn1 [Compound 597, (2S,4R)-1-(2-(5-(2-Acetamidopyrimidin-5-yl)-3-acetyl-1H-indazol-1-yl)acetyl)-N-(6-bromopyridin-2-yl)-4-fluoropyrrolidine-2-carboxamide] | < 1000
18 | CC(=O)c1nn(CC(=O)N2C[C@H](F)C[C@H]2C(=O)Nc2cccc(Br)n2)c2ccc(-c3cnc(C(=O)O)nc3)cc12 [Compound 598, 5-(3-Acetyl-1-(2-((2S,4R)-2-((6-bromopyridin-2-yl)carbamoyl)-4-fluoropyrrolidin-1-yl)-2-oxoethyl)-1H-indazol-5-yl)pyrimidine-2-carboxylic acid] | < 1000
19 | CC(=O)c1nn(CC(=O)N2C[C@H](F)C[C@H]2C(=O)Nc2cccc(Br)n2)c2ccc(-c3cnc(C(N)=O)nc3)cc12 [Compound 599, 5-(3-Acetyl-1-(2-((2S,4R)-2-((6-bromopyridin-2-yl)carbamoyl)-4-fluoropyrrolidin-1-yl)-2-oxoethyl)-1H-indazol-5-yl)pyrimidine-2-carboxamide] | < 1000
20 | CC(=O)c1nn(CC(=O)N2C[C@H](F)C[C@H]2C(=O)Nc2cccc(-c3ncco3)n2)c2ccc(-c3cnc(C)nc3)cc12 [Compound 600, (2S,4R)-1-(2-(3-Acetyl-5-(2-methylpyrimidin-5-yl)-1H-indazol-1-yl)acetyl)-4-fluoro-N-(6-(oxazol-2-yl)pyridin-2-yl)pyrrolidine-2-carboxamide] | < 1000
21 | CC(=O)c1nn(CC(=O)N2C[C@H](F)C[C@H]2C(=O)Nc2nc(OCC(F)(F)F)ccc2C)c2ccc(-c3cnc(C)nc3)cc12 [Compound 601, (2S,4R)-1-(2-(3-Acetyl-5-(2-methylpyrimidin-5-yl)-1H-indazol-1-yl)acetyl)-4-fluoro-N-(3-methyl-6-(2,2,2-trifluoroethoxy)pyridin-2-yl)pyrrolidine-2-carboxamide] | < 1000
22 | CC(=O)c1nn(CC(=O)N2C[C@H](F)C[C@H]2C(=O)Nc2nc(C(C)(F)F)ccc2C)c2ccc(-c3cnc(C)nc3)cc12 [Compound 602, (2S,4R)-1-(2-(3-Acetyl-5-(2-methylpyrimidin-5-yl)-1H-indazol-1-yl)acetyl)-N-(6-(1,1-difluoroethyl)-3-methylpyridin-2-yl)-4-fluoropyrrolidine-2-carboxamide] | < 1000
23 | CC(=O)c1nn(CC(=O)N2[C@@H]3C[C@@H]3C[C@H]2C(=O)Nc2nc(Br)ccc2C2CC2)c2ccc(-c3cnc(C)nc3)cc12 [Compound 603, (1R,3S,5R)-2-(2-(3-Acetyl-5-(2-methylpyrimidin-5-yl)-1H-indazol-1-yl)acetyl)-N-(6-bromo-3-cyclopropyl-pyridin-2-yl)-2-azabicyclo[3.1.0]hexane-3-carboxamide] | < 1000
24 | CC(=O)c1nn(CC(=O)N2C[C@H](F)C[C@H]2C(=O)Nc2cccc(Br)n2)c2ccc(-c3cnc(O)nc3)cc12 [Compound 604, (2S,4R)-1-(2-(3-Acetyl-5-(2-hydroxypyrimidin-5-yl)-1H-indazol-1-yl)acetyl)-N-(6-bromopyridin-2-yl)-4-fluoropyrrolidine-2-carboxamide] | < 1000
25 | CC(=O)c1nn(CC(=O)N2C[C@@H]3C[C@@H]3[C@H]2C(=O)Nc2nc(Br)ccc2C)c2ccc(-c3cnc(C)nc3)cc12 [Compound 605, (1S,2S,5R)-3-(2-(3-Acetyl-5-(2-methylpyrimidin-5-yl)-1H-indazol-1-yl)acetyl)-N-(6-bromo-3-methylpyridin-2-yl)-3-azabicyclo[3.1.0]hexane-2-carboxamide] | < 1000
26 | COCc1ccc(Br)nc1NC(=O)[C@@H]1C[C@@H](F)CN1C(=O)Cn1nc(C(C)=O)c2cc(-c3cnc(C)nc3)ccc21 [Compound 606, (2S,4R)-1-(2-(3-Acetyl-5-(2-methylpyrimidin-5-yl)-1H-indazol-1-yl)acetyl)-N-(6-bromo-3-(methoxymethyl)pyridin-2-yl)-4-fluoropyrrolidine-2-carboxamide] | < 1000
